Measured values as given in ChEMBL document CHEMBL1130951, “A photoactivated prodrug” (Bioorg Med Chem Lett, 1998).

Assays:
[1] = T1/2 was determined; assay type: ADME
DH5 alpha [2] = experiment: Compound was irradiated and tested for its ability to inhibit growth of Escherichia coli DH5 alpha cells at 100 uM concentration; cell growth almost completely inhibited.; assay type: functional, cell-based
DH5 alpha [3] = experiment: Compound was tested for its ability to inhibit growth of Escherichia coli DH5 alpha cells at 100 uM concentration; slight growth inhibition observed; assay type: functional, cell-based
DH5 alpha [4] = experiment: Compound was tested for its ability to inhibit growth of Escherichia coli DH5 alpha cells at 100 uM concentration; complete arrest of cell growth observed; assay type: functional, cell-based

Compound | half-life [1] [min] | inhibition (DH5 alpha [2]) | inhibition (DH5 alpha [3]) | inhibition (DH5 alpha [4])
COc1cc(COC(=O)OC[C@H]2O[C@@H](n3cc(F)c(=O)[nH]c3=O)C[C@@H]2O)c([N+](=O)[O-])cc1OC | 6 | cell growth almost completely inhibited | cell growth almost completely inhibited | 
O=c1[nH]c(=O)n([C@H]2C[C@H](O)[C@@H](CO)O2)cc1F |  |  |  | complete arrest of cell growth observed
